Entries after “also recorded” stand apart in the source; their conditions may differ.
Legend:
[1] = test system: intestinal tissues of wild-type mice; test: Intestinal TEER in wild-type mice; settings: vs control tissues
Caco2 cell monolayers = test: PAR-2 AP-induced actin rearrangement in Caco2 cell monolayers; type: cell-based, human; settings: 10^−6M, vs BSA-treated monolayers
From the text: FIGS. 5A to 5D. Actin cytoskeleton arrangement in Caco2 cells exposed to PAR2-AP (FIG. 5A), BSA (FIG. 5B), PAR2-AP+FZI/0 (FIG. 5C), or PAR-2 AP+FZI/1 (FIG. 5D).
Effect of the Zot/zonulin inhibitor FZI/0 on PAR-2 AP-induced actin rearrangement. It has been recently reported that activation of PAR-2 receptor by PAR-2 AP promotes cytoskeletal reorganization (53). To establish whether this effect can be prevented by the synthetic Zot/zonulin peptide inhibitor, FZI/0, immunofluorescence studies were conducted in Caco2 cell monolayers. […] These cytoskeletal changes were blocked by the pre-incubation with 2×10^−6M FZI/0 (FIG. 5C), but not by the scrambled peptide FZI/1 (FIG. 5D). Therefore, PAR-2 AP and FZI/0 appear to bind to the identical structure on enterocytes.

PAR-2 = test: FZI/0-PAR-2 AP competitive binding experiments in Caco2 cells; set-up: species or system human; settings: FITC-FZI/0 2×10^−8M, competitor 100× excess (10^−6M)
Procedure: FIGS. 4A-4D. FZI/0-PAR-2 AP competitive binding experiments.
FZI/0—PAR-2 AP competitive binding experiments. The activation of PAR-2 requires binding of either its tryptase-generated, cleaved N-terminal portion or the synthetic peptide equivalent, PAR-2 AP, to the receptor's extracellular loop 2 (ECL2) (47). To establish whether FZI/0 binds to the same receptor domain, competitive binding experiments were conducted in Caco2 cells. Cell monolayers were incubated with FITC-FZI/0 (2×10^−8M)) either in the presence of an excess of PAR-2 AP (10^−6M) or a scrambled peptide and then analyzed by fluorescence microscopy.

[2] = test system: mouse intestinal small intestine; test: Microsnapwell assay, mouse small intestine TEER; settings: luminal addition; PAR-2 AP 10^−6M, MCP-II 10^−8M; vs untreated tissues

Molecule	Effect on intestinal TEER [1]	Actin cytoskeleton arrangement (stress fibers) (Caco2 cell monolayers)	Displacement of FITC-FZI/0 by excess competitor (PAR-2)	Displacement of FITC-FZI/0 by excess competitor (PAR-2; listed as PAR2-AP)	Effect on TEER [2]
SLIGRL [PAR-2 AP]	significant drops in TEER; also recorded: comparable drop in intestinal resistance	dissolution of stress fibers	significant reduction of FZI/0 immunofluorescent staining particles	displaced FZI/0	significant drops in TEER; also recorded: decreased TEER
MCP-II: mast cell protease II, serine proteinase of mucosal mast cells (protein, UniProt P00770 21-247, looked up) Mast cell protease 2: IIGGVESIPHSRPYMAHLDIVTEKGLRVICGGFLISRQFVLTAAHCKGREITVILGAHDVRKRESTQQKIKVEKQIIHESYNSVPNLHDIMLLKLEKKVELTPAVNVVPLPSPSDFIHPGAMCWAAGWGKTGVRDPTSYTLREVELRIMDEKACVDYRYYEYKFQVCVGSPTTLRAAFMGDSGGPLLCAGVAHGIVSYGHPDAKPPAIFTRVSTYVPWINAVINTSS	–	–	–	–	significant drops in TEER; also recorded: decreased TEER
